Experimental data as given in publication PMC11070402, “New antiproliferative 3-substituted oxindoles inhibiting EGFR/VEGFR-2 and tubulin polymerization” (Molecular Diversity, 2023).
“And” between values parts separate entries of the source, which are not always exact repeats. Equal entries are not always repeated. Where two headings read alike, the source gives them in different places.

Key:
[1] = tested on: 60 human cancer cell lines; experiment: NCI one-dose assay against sixty NCI cancer cell lines; type: cell-based
Description: (§1) All novel scaffolds 6a–j were carefully selected by the National Cancer Institute (NCI), Bethesda, USA, to elucidate their cytotoxic activity versus 60 human cancer cell lines at 10 µM as a single-dose concentration after a 48 h incubation period.
(§2) National Cancer Institution selected all the synthesized 6a–j (NCI), Bethesda, USA, for in vitro one-dose antitumor assay. The methodology protocol for the NCI anticancer screening was reported in detail elsewhere (http://www.dtp.nci.nih.gov). The anticancer assay was performed in full NCI 60 cell lines extracted from nine tumor cell lines, including leukemia, melanoma, lung, colon, CNS, ovarian, renal, prostate, and breast cancer cell lines.

[2] = tested on: SNB-75 cells (CNS cancer cell line); experiment: NCI one-dose assay, SNB-75; type: cell-based; settings: Homo sapiens; SNB-75 (CNS Cancer), 10 uM single dose; read-out: Growth inhibition %
Description: as §1, §2

[3] = tested on: HOP-92 (non-small cell lung cancer cell line); experiment: NCI one-dose assay, HOP-92; type: cell-based; settings: Homo sapiens
Description: as §1, §2

UO-31 = experiment: NCI one-dose assay, UO-31; type: cell-based; settings: Homo sapiens; UO-31 (Renal Cancer), 10 uM single dose; read-out: Growth inhibition %
Description: as §1, §2

K-562 = experiment: NCI one-dose assay, K-562; type: cell-based; settings: Homo sapiens, K562; K-562 (Leukemia), 10 uM single dose; read-out: Growth inhibition %
Description: as §1, §2

MOLT-4 = experiment: NCI one-dose assay, MOLT-4; type: cell-based; settings: Homo sapiens; MOLT-4 (Leukemia), 10 uM single dose; read-out: Growth inhibition %
Description: as §1, §2

SR = experiment: NCI one-dose assay, SR; type: cell-based; settings: Homo sapiens; SR (Leukemia), 10 uM single dose; read-out: Growth inhibition %
Description: as §1, §2

NCI-H23 = experiment: NCI one-dose assay, NCI-H23; type: cell-based; settings: Homo sapiens; NCI-H23 (Non-Small Cell Lung Cancer), 10 uM single dose; read-out: Growth inhibition %
Description: as §1, §2

MCF-7 = experiment: NCI one-dose assay, MCF-7; type: cell-based, human; settings: Homo sapiens, MCF7, MCF7 (Breast Cancer), 10 uM single dose; read-out: Growth inhibition %
Description: as §1, §2

T-47D = experiment: NCI one-dose assay, T-47D; type: cell-based; settings: Homo sapiens, T47D; T-47D (Breast Cancer), 10 uM single dose; read-out: Growth inhibition %
Description: as §1, §2

[4] = tested on: Human Skin Fibroblasts (HSF) cells; experiment: Margin of safety: cytotoxicity on human skin fibroblasts (SRB assay); type: cell-based
Description: Cell viability was assessed via SRB assay. Aliquots of 100 µl cell suspension (5 × 10^3 cells) were in 96-well plates and incubated in a complete media for 24 h. […] After 72 h of drug exposure, cells were fixed by replacing media with 150 µl of 10% TCA and incubated at 4 °C for 1 h. The TCA solution was removed, and the cells were washed 5 times with distilled water. Aliquots of […] SRB solution (0.4 w/v) were added and incubated in a dark place at room temperature for 10 min. Plates were washed 3 times with 1% acetic acid and allowed to air-dry overnight. Then, 150 µl of TRIS (10 mM) was added to dissolve the protein-bound SRB stain; the absorbance was measured at 540 nm using a BMG LAB TECH®-FLUO star Omega microplate reader (Ortenberg, Germany).

[5] = tested on: MCF-7 (human breast cancer); experiment: Cytotoxicity versus MCF-7 cell line (MTT assay); settings: MCF7, read-out: MCF-7 (IC50 ± SD, uM)
EGFR = biological target: T1, EGFR (Homo sapiens, UniProt P00533); set-up: method as in PMID 34832895; settings: cited from earlier work
T1 construct: purchased
T1 sequence (P00533 25-1210): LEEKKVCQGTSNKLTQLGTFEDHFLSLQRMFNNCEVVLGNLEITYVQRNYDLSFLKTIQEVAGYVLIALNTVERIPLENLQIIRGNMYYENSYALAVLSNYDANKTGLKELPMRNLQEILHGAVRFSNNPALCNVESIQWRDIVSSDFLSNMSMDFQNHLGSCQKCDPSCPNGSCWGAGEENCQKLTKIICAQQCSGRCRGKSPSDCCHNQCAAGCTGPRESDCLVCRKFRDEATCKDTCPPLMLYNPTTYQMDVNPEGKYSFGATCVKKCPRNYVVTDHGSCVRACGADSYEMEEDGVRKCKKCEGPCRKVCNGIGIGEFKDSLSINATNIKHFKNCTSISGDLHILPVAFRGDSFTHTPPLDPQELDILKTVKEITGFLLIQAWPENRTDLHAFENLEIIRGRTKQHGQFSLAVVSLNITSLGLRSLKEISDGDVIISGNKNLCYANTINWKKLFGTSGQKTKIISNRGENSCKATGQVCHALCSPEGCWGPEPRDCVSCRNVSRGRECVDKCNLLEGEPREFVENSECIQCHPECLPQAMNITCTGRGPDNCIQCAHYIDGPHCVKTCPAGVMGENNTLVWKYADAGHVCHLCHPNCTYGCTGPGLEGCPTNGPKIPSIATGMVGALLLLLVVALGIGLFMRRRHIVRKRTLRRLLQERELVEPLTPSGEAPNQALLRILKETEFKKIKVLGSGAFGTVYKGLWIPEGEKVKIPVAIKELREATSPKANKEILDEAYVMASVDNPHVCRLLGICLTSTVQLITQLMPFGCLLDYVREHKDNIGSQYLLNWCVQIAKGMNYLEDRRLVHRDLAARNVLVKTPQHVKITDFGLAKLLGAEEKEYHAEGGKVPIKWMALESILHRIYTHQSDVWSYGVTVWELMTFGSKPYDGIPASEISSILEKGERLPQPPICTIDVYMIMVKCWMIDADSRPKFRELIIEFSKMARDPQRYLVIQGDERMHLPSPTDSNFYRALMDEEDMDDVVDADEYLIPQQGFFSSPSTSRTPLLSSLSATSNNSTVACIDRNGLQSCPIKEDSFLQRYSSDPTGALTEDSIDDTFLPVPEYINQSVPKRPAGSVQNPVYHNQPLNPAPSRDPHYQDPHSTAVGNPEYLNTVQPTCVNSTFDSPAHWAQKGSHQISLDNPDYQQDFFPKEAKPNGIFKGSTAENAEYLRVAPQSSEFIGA

tubulin [6] = tested on: tubulin; set-up: method as in PMID 34832895; settings: read-out: IC50 tubulin assembly; cited from earlier work
tubulin [7] = experiment: Tubulin polymerization inhibition assay; type: biochemical
tubulin [8] = tested on: tubulin; set-up: method as in PMID 33038796; settings: read-out: tubulin polymerization IC50; cited from earlier work
[9] = tested on: NCI/ADR-RES (ovarian cancer cell line); experiment: NCI one-dose assay, NCI/ADR-RES; type: cell-based; settings: Homo sapiens
Description: as §1, §2

LOX IMVI = experiment: NCI one-dose assay, LOX IMVI; type: cell-based; settings: Homo sapiens; LOX IMVI (Melanoma), 10 uM single dose; read-out: Growth inhibition %
Description: as §1, §2

SK-MEL-5 = experiment: NCI one-dose assay, SK-MEL-5; type: cell-based; settings: Homo sapiens; SK-MEL-5 (Melanoma), 10 uM single dose; read-out: Growth inhibition %
Description: as §1, §2

[10] = CAKI-1 (Renal Cancer), 10 uM single dose, read-out: Growth inhibition %
[11] = HCT-116 (Colon Cancer), 10 uM single dose, read-out: Growth inhibition %
[12] = IGROV-1, IGROV1 (Ovarian Cancer), 10 uM single dose, read-out: Growth inhibition %
[13] = M14 (Melanoma), 10 uM single dose, read-out: Growth inhibition %
[14] = MDA-MB-231, read-out: Growth inhibition %
[15] = NCI-H226 (Non-Small Cell Lung Cancer), 10 uM single dose, read-out: Growth inhibition %
[16] = OVCAR-3 (Ovarian Cancer), 10 uM single dose, read-out: Growth inhibition %
[17] = OVCAR-8 (Ovarian Cancer), 10 uM single dose, read-out: Growth inhibition %
[18] = PC-3 (Prostate Cancer), 10 uM single dose, read-out: Growth inhibition %
[19] = UACC-62 (Melanoma), 10 uM single dose, read-out: Growth inhibition %
[20] = HOP-92 (Non-Small Cell Lung Cancer), 10 uM single dose, read-out: Growth inhibition %
[21] = BT-549 (Breast Cancer), 10 uM single dose, read-out: Growth inhibition %
[22] = CCRF-CEM (Leukemia), 10 uM single dose, read-out: Growth inhibition %
[23] = NCI-H522 (Non-Small Cell Lung Cancer), 10 uM single dose, read-out: Growth inhibition %
[24] = RPMI-8226 (Leukemia), 10 uM single dose, read-out: Growth inhibition %

| SMILES | inhibition at 10 µM [1, 10] | inhibition at 10 µM [1, 11] | inhibition at 10 µM [1, 12] | inhibition at 10 µM [1, 13] | inhibition at 10 µM [1, 14] | inhibition at 10 µM [1, 15] | inhibition at 10 µM [1, 16] | inhibition at 10 µM [1, 17] | inhibition at 10 µM [1, 18] | inhibition at 10 µM [1, 19] | inhibition at 10 µM [2] | inhibition at 10 µM [3, 20] | inhibition at 10 µM (UO-31) | inhibition at 10 µM (K-562) | inhibition at 10 µM (MOLT-4) | inhibition at 10 µM (SR) | inhibition at 10 µM (MCF-7) | inhibition at 10 µM (T-47D) | melting point | IC50 (tubulin [6]) | further results |
| --- | --- | --- | --- | --- | --- | --- | --- | --- | --- | --- | --- | --- | --- | --- | --- | --- | --- | --- | --- | --- | --- |
| COc1ccc(C(=O)COc2ccc(/C=C3/C(=O)Nc4cc(Cl)ccc43)cc2)cc1 [Compound 6j, (E/Z)-6-Chloro-3-{4-[2-(4-methoxyphenyl)-2-oxoethoxy]benzylidene}indolin-2-one] | 23.2% | 12.2% | 21.5% | 10.3% | 12.2% | 13.2% | 18.1% | 13.4% | 33.5% | 23.8% | 36.7% | 34.8% | 35.9% | 22.8% | 30.3% | 16.7% | 34.4% | 15.6% | 165 to 167 °C |  | inhibition at 10 µM ([1]; ACHN (Renal Cancer), 10 uM single dose, read-out: Growth inhibition %): 10.1%; inhibition at 10 µM ([1]; HOP-62 (Non-Small Cell Lung Cancer), 10 uM single dose, read-out: Growth inhibition %): 16.7%; inhibition at 10 µM ([1]; OVCAR-4 (Ovarian Cancer), 10 uM single dose, read-out: Growth inhibition %): 11%; inhibition at 10 µM ([1]; U-251, U251 (CNS Cancer), 10 uM single dose, read-out: Growth inhibition %): 12.9%; inhibition at 10 µM (NCI-H23): 10.5% |
| O=c1[nH]cc(F)c(=O)[nH]1 [5FU, 5-fluorouracil, reference compound] |  |  |  |  |  |  |  |  |  |  |  |  |  |  |  |  |  |  |  |  | IC50 ([4]; HSF, Human Skin Fibroblasts, SRB assay, 72 h exposure, read-out: HSF (IC50 ± SD)): 5450 ± 20 nM; SI (selectivity index) ([4]; SI = IC50 for HSF / IC50 for MCF-7 cells): 2.70; IC50 [5]: 2.02 ± 0.17 µM |
| COc1cc(OC)c(C=C2C(=O)Nc3cc(Cl)ccc32)c(OC)c1 [XIII] |  |  |  |  |  |  |  |  |  |  |  |  |  |  |  |  |  |  |  | 1660 nM | IC50 (EGFR): 549 nM |
| COc1ccc(/C=C\c2cc(OC)c(OC)c(OC)c2)cc1O [CA-4, combretastatin A4] |  |  |  |  |  |  |  |  |  |  |  |  |  |  |  |  |  |  |  | […] | %inh Tub (tubulin [7]; conc 0.1 (uM printed only in the CA-4 head)): […]; %inh Tub (tubulin [7]; conc 1 (uM printed only in the CA-4 head)): […]; %inh Tub (tubulin [7]; conc 10 (uM printed only in the CA-4 head)): […]; %inh Tub (tubulin [7]; conc 100 (uM printed only in the CA-4 head)): […]; IC50 (tubulin [7]; read-out: Tubulin polymerization inhibition (IC50 ± SD)): […]; IC50 (tubulin [8]): 2500 nM |
| COc1ccc(C(=O)COc2ccc(C=C3C(=O)Nc4ccc(Cl)cc43)cc2)cc1 [Compound 6i, 5-Chloro-3-{4-[2-(4-methoxyphenyl)-2-oxoethoxy]benzylidene}indolin-2-one] | 22.7% | 10.4% |  |  |  | 17.4% | 10.8% | 10.6% | 29.6% | 20.1% | 37.6% |  | 38.1% | 25% | 21.8% | 21.2% | 22.1% | 23.9% | 183 to 185 °C |  | inhibition at 10 µM [1, 21]: 11.7%; inhibition at 10 µM [1, 22]: 12.5%; inhibition at 10 µM [1, 23]: 16.1%; inhibition at 10 µM [1, 24]: 19.9%; inhibition at 10 µM ([1]; SK-MEL-2 (Melanoma), 10 uM single dose, read-out: Growth inhibition %): 22.2%; inhibition at 10 µM ([9]; NCI/ADR-RES (Ovarian Cancer), 10 uM single dose, read-out: Growth inhibition %): 13.1%; inhibition at 10 µM ([3]; HOP-92, 10 µM single dose, 48 h incubation, read-out: cell growth inhibition % (GI %)): 62.1%; inhibition at 10 µM (LOX IMVI): 12.3% |
| COc1ccc(C(=O)COc2ccc(C=C3C(=O)Nc4ccccc43)cc2)cc1 [Compound 6h, 3-{4-[2-(4-Methoxyphenyl)-2-oxoethoxy]benzylidene}indolin-2-one] | 26.4% | 25.4% | 23.7% | 12.1% | 10.8% | 15.4% | 18.3% | 15.9% | 36.1% | 31.5% | 23.6% | 11.7% | 37.5% | 39.7% | 34.3% | 19.2% | 41.3% | 26.4% | 192 to 194 °C |  | inhibition at 10 µM [1, 21]: 10.1%; inhibition at 10 µM [1, 22]: 14%; inhibition at 10 µM ([1]; HCT-15 (Colon Cancer), 10 uM single dose, read-out: Growth inhibition %): 15.2%; inhibition at 10 µM ([1]; HL-60(TB) (Leukemia), 10 uM single dose, read-out: Growth inhibition %): 20.8%; inhibition at 10 µM ([1]; HS 578T (Breast Cancer), 10 uM single dose, read-out: Growth inhibition %): 11.3%; inhibition at 10 µM [1, 23]: 17.2%; inhibition at 10 µM [1, 24]: 25.4%; inhibition at 10 µM ([1]; SF-539 (CNS Cancer), 10 uM single dose, read-out: Growth inhibition %): 10.7%; inhibition at 10 µM ([1]; SK-OV-3 (Ovarian Cancer), 10 uM single dose, read-out: Growth inhibition %): 14.1%; inhibition at 10 µM ([9]; NCI/ADR-RES, 10 µM single dose, 48 h incubation, read-out: cell growth inhibition % (GI %)): 43.7%; inhibition at 10 µM (SK-MEL-5): 17.8% |
